The test addresses T1, human PD-1 / PD-L1-Ig binding on Jurkat cell line over-expressing human PD-1 (Jurkat-PD-1) (Homo sapiens, UniProt Q15116).
T1 construct: expressed in transfected cells; host or cells: Jurkat
Briefly: Jurkat-PD-1 Cell Binding High-Content Screening Assay (CBA). Conditions: Jurkat-PD-1 cells, PE-labeled PD-L1-Ig 20 nM final; read-out: Jurkat HPD1_PDL1 IC50. It counts as cell-based. An outline of the steps:
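PE-PD-L1-Ig 20 nM final; cells in DMEM/10% FCS; cpd pre-incubation 2 h, 37° C; ligand 1 h; PFA fix + Hoechst 33342; high-content imaging read-out.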

Where a SMILES comes first, the peptide text is derived from it. Bridges are numbered along the chain shown (N, C = ends). [ ]: non-standard residue; d: D form. The star is where a group is joined. ξ: configuration not given here. Phe(4-COOH) = N[C@@H](Cc1ccc(C(=O)O)cc1)C(=O)O; Bip = N[C@@H](Cc1ccc(-c2ccccc2)cc1)C(=O)O; Phe(3-Me) = Cc1cccc(C[C@H](N)C(=O)O)c1; Val(3-OH) = CC(C)(O)[C@H](N)C(=O)O; Aha = [N-]=[N+]=NCC[C@H](N)C(=O)O; 4Pal = N[C@@H](Cc1ccncc1)C(=O)O; 3Thi = N[C@@H](Cc1ccsc1)C(=O)O; Cha = N[C@@H](CC1CCCCC1)C(=O)O; Cit = NC(=O)NCCC[C@H](N)C(=O)O; dCha = N[C@H](CC1CCCCC1)C(=O)O; Thr(3ξ) = CC(O)[C@H](N)C(=O)O; Phg = N[C@H](C(=O)O)c1ccccc1; Carboxymethyl = O=C(O)C*; Nle = CCCC[C@H](N)C(=O)O; Orn = NCCC[C@H](N)C(=O)O; Pra = C#CC[C@H](N)C(=O)O; Dab = NCC[C@H](N)C(=O)O; Dap = NC[C@H](N)C(=O)O

T1 sequence (Q15116 25-288): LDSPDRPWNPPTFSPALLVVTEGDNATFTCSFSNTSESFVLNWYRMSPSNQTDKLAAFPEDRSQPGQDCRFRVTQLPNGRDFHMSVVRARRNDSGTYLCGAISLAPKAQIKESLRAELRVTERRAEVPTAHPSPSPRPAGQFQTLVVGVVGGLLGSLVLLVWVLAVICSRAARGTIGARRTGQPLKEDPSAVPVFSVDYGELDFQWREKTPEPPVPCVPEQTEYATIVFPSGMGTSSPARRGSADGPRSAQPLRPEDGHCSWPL

For the compound `CCCC[C@@H]1NC(=O)[C@H](CCCNC(=N)N)NC(=O)[C@@H](CC(C)C)NC(=O)[C@H](CCCN)NC(=O)[C@H]([C@@H](C)CC)NC(=O)[C@H](Cc2ccc(-c3ccccc3)cc2)NC(=O)[C@H](C(C)C)NC(=O)[C@H](Cc2c[nH]c3ccccc23)NC(=O)[C@H](CC(=O)O)NC(=O)[C@H](Cc2ccc(O)cc2)NC(=O)[C@H](Cc2ccc(OCC(=O)O)cc2)NC(=O)CSC[C@@H](C(=O)N[C@@H](C)C(N)=O)NC(=O)[C@H]([C@@H](C)O)NC(=O)[C@H](C(C)C)NC1=O` [Compound 1150] ({CH2CO}-Y(Carboxymethyl)YDWV[Bip]I[Orn][dL]R[Nle]VTCA-NH2; thioether N-14), the IC50 (as a rule, the concentration that inhibits the measured activity by half) turned out to be 48.9 nM.

With `Cc1cccc(C[C@@H]2NC(=O)[C@H](CC(=O)O)NC(=O)[C@H](Cc3ccc(C(=O)O)cc3)NC(=O)[C@H](CN)NC(=O)CSC[C@@H](C(=O)N[C@@H](C)C(N)=O)NC(=O)[C@H]([C@@H](C)O)NC(=O)[C@H](C(C)C)NC(=O)[C@H](CC3CCCCC3)NC(=O)[C@H](CCN)NC(=O)[C@@H](CC(C)C)NC(=O)[C@H](CCCN)NC(=O)[C@H](C(C)C)NC(=O)[C@H](Cc3ccc(-c4ccccc4)cc3)NC(=O)[C@H](C(C)C)NC2=O)c1` [Compound 1206], the IC50 was determined as 8.9 nM.

Turning to `CC(C)C[C@H]1NC(=O)[C@H](CCCN)NC(=O)[C@H](C(C)C)NC(=O)[C@H](Cc2ccc(-c3ccccc3)cc2)NC(=O)[C@H](C(C)C)NC(=O)[C@H](Cc2c[nH]c3ccccc23)NC(=O)[C@H](CC(=O)O)NC(=O)[C@H](Cc2ccc(O)cc2)NC(=O)[C@H](C(C)O)NC(=O)CSC[C@@H](C(=O)N[C@@H](CC(N)=O)C(N)=O)NC(=O)[C@H](C(C)O)NC(=O)[C@H](C(C)C)NC(=O)[C@H](CC2CCCCC2)NC(=O)[C@H](CCN)NC1=O` (stereo partly drawn) [Compound 2549] ({CH2CO}-[Thr(3ξ)]YDWV[Bip]V[Orn][dL][Dab][Cha]V[Thr(3ξ)]CN-NH2; thioether N-14), the IC50 worked out at 12.5 nM.

`Cc1cccc(C[C@@H]2NC(=O)[C@H](CC(=O)O)NC(=O)[C@H](Cc3ccc(C(=O)O)cc3)NC(=O)[C@H](Cc3ccncc3)NC(=O)CSC[C@@H](C(=O)N[C@@H](CCN)C(N)=O)NC(=O)[C@H](CO)NC(=O)[C@H](C(C)(C)O)NC(=O)[C@H](CC3CCCCC3)NC(=O)[C@H](CCN)NC(=O)[C@@H](CC(C)C)NC(=O)[C@H](CCCN)NC(=O)[C@H](Cc3ccc(C(=O)O)cc3)NC(=O)[C@H](Cc3ccc(-c4ccccc4)cc3)NC(=O)[C@H](Cc3ccc(OCC(=O)O)cc3)NC2=O)c1` [Compound 2661] ({CH2CO}-[4Pal][Phe(4-COOH)]D[Phe(3-Me)]Y(Carboxymethyl)[Bip][Phe(4-COOH)][Orn][dL][Dab][Cha][Val(3-OH)]SC[Dab]-NH2; thioether N-14): the IC50 was found to be 201 nM.

For the compound `Cc1cccc(C[C@@H]2NC(=O)[C@H](CC(=O)O)NC(=O)[C@H](Cc3ccc(O)cc3)NC(=O)[C@H](CC(N)=O)NC(=O)CSC[C@@H](C(N)=O)NC(=O)[C@H]([C@@H](C)O)NC(=O)[C@H](C(C)C)NC(=O)[C@H](CC(C)C)NC(=O)[C@H](CCN)NC(=O)[C@@H](CC(C)C)NC(=O)[C@H](CCCN)NC(=O)[C@H](C(C)C)NC(=O)[C@H](Cc3ccc(-c4ccccc4)cc3)NC(=O)[C@H](C(C)C)NC2=O)c1` [Compound 1648] ({CH2CO}-NYD[Phe(3-Me)]V[Bip]V[Orn][dL][Dab]LVTC-NH2; thioether N-14), the IC50 was 97 nM.

Turning to `CC(C)C[C@H]1NC(=O)[C@H](CCCN)NC(=O)[C@H](CCC(=O)O)NC(=O)[C@H](Cc2ccc(-c3ccccc3)cc2)NC(=O)[C@H](C(C)C)NC(=O)[C@H](Cc2c[nH]c3ccccc23)NC(=O)[C@H](CC(=O)O)NC(=O)[C@H](Cc2ccc(-c3cccc(C(=O)O)c3)cc2)NC(=O)[C@H](Cc2ccncc2)NC(=O)CSC[C@@H](C(=O)N[C@@H](C)C(N)=O)NC(=O)[C@H]([C@@H](C)O)NC(=O)[C@H](C(C)C)NC(=O)[C@H](CC2CCCCC2)NC(=O)[C@H](CCN)NC1=O` [Compound 2164], the IC50 came out at 8 nM.

Turning to `CC(C)C[C@@H]1NC(=O)[C@H](CCN)NC(=O)[C@@H](CC(C)C)NC(=O)[C@H](CCN)NC(=O)[C@H](C(C)C)NC(=O)[C@H](Cc2ccc(-c3ccccc3)cc2)NC(=O)[C@H](C(C)C)NC(=O)[C@H](Cc2c[nH]c3ccccc23)NC(=O)[C@H](CC(=O)O)NC(=O)[C@H](Cc2ccc(O)cc2)NC(=O)[C@H](CC(N)=O)NC(=O)CSC[C@@H](C(=O)N[C@@H](C)C(N)=O)NC(=O)[C@H]([C@@H](C)O)NC(=O)[C@H](C(C)C)NC1=O` [Compound 1029] ({CH2CO}-NYDWV[Bip]V[Dab][dL][Dab]LVTCA-NH2; thioether N-14), the 50% inhibitory concentration (IC50) amounted to 5.4 nM.

In the case of `Cc1cccc(C[C@@H]2NC(=O)[C@H](CC(=O)O)NC(=O)[C@H](Cc3ccc(OCC(=O)O)cc3)NC(=O)[C@H]([C@@H](C)O)NC(=O)CSC[C@@H](C(N)=O)NC(=O)[C@H](CC(=O)O)NC(=O)[C@H](C(C)C)NC(=O)[C@H](CC3CCCCC3)NC(=O)[C@H](CCN)NC(=O)[C@@H](CC(C)C)NC(=O)[C@H](CCCN)NC(=O)[C@H](Cc3ccc(OCC(=O)O)cc3)NC(=O)[C@H](Cc3ccc(-c4ccccc4)cc3)NC(=O)[C@H](Cc3ccc(OCC(=O)O)cc3)NC2=O)c1` [Compound 1798] ({CH2CO}-TY(Carboxymethyl)D[Phe(3-Me)]Y(Carboxymethyl)[Bip]Y(Carboxymethyl)[Orn][dL][Dab][Cha]VDC-NH2; thioether N-14), the IC50 was 26.7 nM.

Consider `CC(C)C[C@H]1NC(=O)[C@H](CCCN)NC(=O)[C@H](CCCNC(N)=O)NC(=O)[C@H](Cc2ccc(-c3ccccc3)cc2)NC(=O)[C@H](C(C)C)NC(=O)[C@H](Cc2c[nH]c3ccccc23)NC(=O)[C@H](CC(=O)O)NC(=O)[C@H](CCC(=O)O)NC(=O)[C@H](CN)NC(=O)CSC[C@@H](C(=O)N[C@@H](C)C(N)=O)NC(=O)[C@H]([C@@H](C)O)NC(=O)[C@H](C(C)C)NC(=O)[C@H](CC2CCCCC2)NC(=O)[C@H](CCN)NC1=O` [Compound 2121] ({CH2CO}-[Dap]EDWV[Bip][Cit][Orn][dL][Dab][Cha]VTCA-NH2; thioether N-14), for which the IC50 was determined as 232 nM.

Regarding `CC(C)C[C@H]1NC(=O)[C@H](CCCN)NC(=O)[C@H](CCC(=O)O)NC(=O)[C@H](Cc2ccc(-c3ccccc3)cc2)NC(=O)[C@H](c2ccccc2)NC(=O)[C@H](Cc2c[nH]c3ccccc23)NC(=O)[C@H](CC(=O)O)NC(=O)[C@H](Cc2ccc(OCC(=O)O)cc2)NC(=O)[C@H](CN)NC(=O)CSC[C@@H](C(=O)N[C@@H](C)C(N)=O)NC(=O)[C@H]([C@@H](C)O)NC(=O)[C@H](C(C)C)NC(=O)[C@H](CC2CCCCC2)NC(=O)[C@H](CCN)NC1=O` [Compound 1720] ({CH2CO}-[Dap]Y(Carboxymethyl)DW[Phg][Bip]E[Orn][dL][Dab][Cha]VTCA-NH2; thioether N-14), the IC50 was 24 nM.

With `C#CC[C@H](NC(=O)[C@@H]1CSCC(=O)N[C@@H](CN)C(=O)N[C@@H](CCN=[N+]=[N-])C(=O)N[C@@H](CC(=O)O)C(=O)N[C@@H](Cc2c[nH]c3ccccc23)C(=O)N[C@@H](C(C)C)C(=O)N[C@@H](Cc2ccc(-c3ccccc3)cc2)C(=O)N[C@@H](CCC(=O)O)C(=O)N[C@@H](CCCN)C(=O)N[C@H](CC(C)C)C(=O)N[C@@H](CCN)C(=O)N[C@@H](CC2CCCCC2)C(=O)N[C@@H](C(C)C)C(=O)N[C@@H]([C@@H](C)O)C(=O)N1)C(N)=O` [Compound 1540] ({CH2CO}-[Dap][Aha]DWV[Bip]E[Orn][dL][Dab][Cha]VTC[Pra]-NH2; thioether N-14), the IC50 worked out at 87.4 nM.

Consider `CC[C@H](C)[C@@H]1NC(=O)[C@H](Cc2c[nH]c3ccccc23)NC(=O)[C@H](CC(=O)O)NC(=O)[C@H](Cc2ccc(OCC(=O)O)cc2)NC(=O)[C@H](CN)NC(=O)CSC[C@@H](C(=O)N[C@@H](C)C(N)=O)NC(=O)[C@H]([C@@H](C)O)NC(=O)[C@H](C(C)C)NC(=O)[C@H](CC2CCCCC2)NC(=O)[C@H](CCN)NC(=O)[C@@H](CC(C)C)NC(=O)[C@H](CCCN)NC(=O)[C@H](CCC(=O)O)NC(=O)[C@H](Cc2ccc(-c3ccccc3)cc2)NC1=O` [Compound 1717] ({CH2CO}-[Dap]Y(Carboxymethyl)DWI[Bip]E[Orn][dL][Dab][Cha]VTCA-NH2; thioether N-14), for which the IC50 worked out at 27.7 nM.

With `CC(=O)NCCCC[C@@H]1NC(=O)[C@H](C(C)C)NC(=O)[C@H](CC2CCCCC2)NC(=O)[C@H](CCN)NC(=O)[C@@H](CC(C)C)NC(=O)[C@H](CCN)NC(=O)[C@H](C(C)C)NC(=O)[C@H](Cc2ccc(-c3ccccc3)cc2)NC(=O)[C@H](C(C)C)NC(=O)[C@H](Cc2c[nH]c3ccccc23)NC(=O)[C@H](CC(=O)O)NC(=O)[C@H](Cc2ccc(OCC(=O)O)cc2)NC(=O)[C@H](Cc2ccsc2)NC(=O)CSC[C@@H](C(=O)N[C@@H](CCN)C(N)=O)NC1=O` [Compound 2613] ({CH2CO}-[3Thi]Y(Carboxymethyl)DWV[Bip]V[Dab][dL][Dab][Cha]VK(Ac)C[Dab]-NH2; thioether N-14), the IC50 came to 11 nM.

Take `CC(C)C[C@H]1NC(=O)[C@H](CCCN)NC(=O)[C@H](CCC(=O)O)NC(=O)[C@H](Cc2ccc(-c3ccccc3)cc2)NC(=O)[C@H](C(C)C)NC(=O)[C@H](Cc2cccc(C(F)(F)F)c2)NC(=O)[C@H](CC(=O)O)NC(=O)[C@H](Cc2ccc(OCC(=O)O)cc2)NC(=O)[C@H](Cc2ccc(OCC(=O)O)cc2)NC(=O)CSC[C@@H](C(=O)N[C@@H](C)C(N)=O)NC(=O)[C@H]([C@@H](C)O)NC(=O)[C@H](C(C)C)NC(=O)[C@H](CC2CCCCC2)NC(=O)[C@H](CCN)NC1=O` [Compound 1465]: the IC50 turned out to be 27.4 nM.

Regarding `CC(C)[C@@H]1NC(=O)[C@H](Cc2c[nH]c3ccccc23)NC(=O)[C@H](CC(=O)O)NC(=O)[C@H](Cc2ccc(OCC(=O)O)cc2)NC(=O)[C@H](Cc2ccc(OCC(=O)O)cc2)NC(=O)CSC[C@@H](C(=O)N[C@@H](C)C(N)=O)NC(=O)[C@H]([C@@H](C)O)NC(=O)[C@H](C(C)C)NC(=O)[C@H](CC2CCCCC2)NC(=O)[C@H](CCN)NC(=O)[C@@H](CC2CCCCC2)NC(=O)[C@H](CCCN)NC(=O)[C@H](CCCNC(N)=O)NC(=O)[C@H](Cc2ccc(-c3ccccc3)cc2)NC1=O` [Compound 1641] ({CH2CO}-Y(Carboxymethyl)Y(Carboxymethyl)DWV[Bip][Cit][Orn][dCha][Dab][Cha]VTCA-NH2; thioether N-14), the IC50 was 37.1 nM.

The record behind these values is patent publication US20250163104A1, “MACROCYCLIC IMMUNOMODULATORS” (priority 2021, published 2025).
